US20110212968A1, “PHENETHYLAMIDE DERIVATIVES AND THEIR HETEROCYCLIC ANALOGUES” (priority 2008, published 2011)

Columns and labels:
human orexin-1 receptor = target: T1, human orexin-1 receptor (Homo sapiens, UniProt O43613); assay: Intracellular calcium measurement (FLIPR Tetra), orexin receptor antagonistic activity, OX1; type: cell-based; settings: CHO cells expressing human orexin-1 receptor, 3 nM orexin-A
T1 construct: expressed in transfected cells; host or cells: CHO (Chinese hamster ovary) cells, kept under G418 selection
T1 sequence (O43613 1-425): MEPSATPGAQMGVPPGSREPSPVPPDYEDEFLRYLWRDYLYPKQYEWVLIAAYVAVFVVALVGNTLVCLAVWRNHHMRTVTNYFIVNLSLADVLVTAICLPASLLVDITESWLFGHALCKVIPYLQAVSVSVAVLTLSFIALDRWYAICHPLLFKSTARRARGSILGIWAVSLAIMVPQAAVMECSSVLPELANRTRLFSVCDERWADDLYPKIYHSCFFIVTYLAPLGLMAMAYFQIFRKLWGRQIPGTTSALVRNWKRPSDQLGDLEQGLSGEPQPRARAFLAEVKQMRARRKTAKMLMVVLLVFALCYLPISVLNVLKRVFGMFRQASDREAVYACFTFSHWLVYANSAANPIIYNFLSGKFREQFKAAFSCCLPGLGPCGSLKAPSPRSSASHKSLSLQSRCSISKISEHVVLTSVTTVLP
Protocol: (§1) The orexin receptor antagonistic activity of the compounds of formula (I) is determined in accordance with one of the following experimental methods.
(§2) Chinese hamster ovary (CHO) cells expressing the human orexin-1 receptor and the human orexin-2 receptor, respectively, are grown in culture medium (Ham F-12 with L-Glutamine) containing 300 μg/ml G418, 100 U/ml penicillin, 100 μg/ml streptomycin and 10% heat inactivated fetal calf serum (FCS). The cells are seeded at 20,000 cells/well into 384-well black clear bottom sterile plates (Greiner). The seeded plates are incubated overnight at 37° C. in 5% CO2.
(§3) Human orexin-A as an agonist is prepared as 1 mM stock solution in MeOH:water (1:1), diluted in HBSS containing 0.1% bovine serum albumin (BSA), NaHCO3: 0.375 g/l and 20 mM HEPES for use in the assay at a final concentration of 3 nM. Antagonists are prepared as 10 mM stock solution in DMSO, then diluted in 384-well plates, first in DMSO, then in HBSS containing 0.1% bovine serum albumin (BSA), NaHCO3: 0.375 g/l and 20 mM HEPES.
(§4) On the day of the assay, 50 μl of staining buffer (HBSS containing 1% FCS, 20 mM HEPES, NaHCO3: 0.375 g/l, 5 mM probenecid (Sigma) and 3 μM of the fluorescent calcium indicator fluo-4 AM (1 mM stock solution in DMSO, containing 10% pluronic) is added to each well.
(§5) The 384-well cell-plates are incubated for 50 min at 37° C. in 5% CO2 followed by equilibration at RT for 30-120 min before measurement.
(§6) Within the Fluorescent Imaging Plate Reader (FLIPR Tetra, Molecular Devices), antagonists are added to the plate in a volume of 10 μl/well, incubated for 10 min and finally 10 μl/well of agonist is added. Fluorescence is measured for each well at 1 second intervals, and the height of each fluorescence peak is compared to the height of the fluorescence peak induced by 3 nM orexin-A with vehicle in place of antagonist. For each antagonist, the IC50 value (the concentration of compound needed to inhibit 50% of the agonistic response) is determined and may be normalized using the obtained IC50 value of a on-plate reference compound (normalized values in Table 1 are indicated by an asterisk *). With the FLIPR Tetra, two different conditions (conditions A and conditions B) were used, differing in adjustment of pipetting speed and cell splitting regime. The calculated IC50 values of the compounds may fluctuate depending on the daily cellular assay performance. Fluctuations of this kind are known to those skilled in the art.

human orexin-2 receptor = target: T2, human orexin-2 receptor (Homo sapiens, UniProt O43614); assay: Intracellular calcium measurement (FLIPR Tetra), orexin receptor antagonistic activity, OX2; type: cell-based; settings: CHO cells expressing human orexin-2 receptor, 3 nM orexin-A
T2 construct: expressed in transfected cells; host or cells: CHO (Chinese hamster ovary) cells, kept under G418 selection
T2 sequence (O43614 1-444): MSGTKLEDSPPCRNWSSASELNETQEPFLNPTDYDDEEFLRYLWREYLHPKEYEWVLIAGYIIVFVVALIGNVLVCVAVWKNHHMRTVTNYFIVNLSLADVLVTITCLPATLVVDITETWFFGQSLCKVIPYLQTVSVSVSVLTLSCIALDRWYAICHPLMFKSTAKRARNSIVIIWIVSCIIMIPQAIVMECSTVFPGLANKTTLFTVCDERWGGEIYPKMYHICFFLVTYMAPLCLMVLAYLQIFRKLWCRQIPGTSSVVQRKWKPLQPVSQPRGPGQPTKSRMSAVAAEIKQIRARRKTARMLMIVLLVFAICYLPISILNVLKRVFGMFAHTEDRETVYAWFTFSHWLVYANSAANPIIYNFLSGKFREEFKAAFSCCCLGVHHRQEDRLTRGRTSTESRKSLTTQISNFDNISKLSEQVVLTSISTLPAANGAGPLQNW
Protocol: as §1, §2, §3, §4, §5, §6

[1] = conditions B, normalized (*) using IC50 of on-plate reference compound

COc1ccc2c(CCN(CC3CC3)C(=O)c3nc(N)sc3-c3cccc(C)c3)c[nH]c2c1 [Example 227, 2-Amino-5-m-tolyl-thiazole-4-carboxylic acid cyclopropylmethyl-[2-(6-methoxy-1H-indol-3-yl)-ethyl]-amide]
IC50 (human orexin-1 receptor; conditions B): 0.007 µM
IC50 (human orexin-2 receptor; conditions B): 0.017 µM

Cc1ccc(-c2nccnc2C(=O)N(CCc2c[nH]c3ccc(F)cc23)CC(N)=O)cc1C [Example 294, 3-(3,4-Dimethyl-phenyl)-pyrazine-2-carboxylic acid carbamoylmethyl-[2-(5-fluoro-1H-indol-3-yl)-ethyl]-amide]
IC50 (human orexin-1 receptor; [1]): 3.82 µM
IC50 (human orexin-2 receptor; [1]): 0.706 µM

COc1ccc(CCN(CC2CC2)C(=O)c2ncsc2-c2ccccc2F)cc1OC [Example 37, 5-(2-Fluoro-phenyl)-thiazole-4-carboxylic acid cyclopropylmethyl-[2-(3,4-dimethoxy-phenyl)-ethyl]-amide]
IC50 (human orexin-1 receptor; conditions A): 2.69 µM
IC50 (human orexin-2 receptor; conditions A): 0.005 µM

Cc1cc(F)cc(-c2nccnc2C(=O)N(CCc2c[nH]c3ccccc23)CC(F)(F)F)c1 [Example 556, 3-(3-Fluoro-5-methyl-phenyl)-pyrazine-2-carboxylic acid [2-(1H-indol-3-yl)-ethyl]-(2,2,2-trifluoro-ethyl)-amide]
IC50 (human orexin-1 receptor; [1]): 0.425 µM
IC50 (human orexin-2 receptor; [1]): 0.212 µM

COc1ccc(CCN(CC2CC2)C(=O)c2ncccc2-c2ccc(C)cc2)cc1OC [Example 391]
IC50 (human orexin-1 receptor; conditions B): 0.388 µM
IC50 (human orexin-2 receptor; conditions B): 0.004 µM

CCN(CCc1ccc(OC)c(OC)c1)C(=O)c1nc(C)sc1-c1ccc(C)c(C)c1 [Example 108, 5-(3,4-Dimethyl-phenyl)-2-methyl-thiazole-4-carboxylic acid [2-(3,4-dimethoxy-phenyl)-ethyl]-ethyl-amide]
IC50 (human orexin-1 receptor; conditions B): 0.036 µM
IC50 (human orexin-2 receptor; conditions B): 0.005 µM

CCC(Cc1ccc(OC)c(OC)c1)N(CC1CC1)C(=O)c1nc(N)sc1-c1cccc(C)c1 (centres unmarked) [Example 169, 2-Amino-5-m-tolyl-thiazole-4-carboxylic acid cyclopropylmethyl-[1-(3,4-dimethoxy-benzyl)-propyl]-amide]
IC50 (human orexin-1 receptor; conditions B): 0.025 µM
IC50 (human orexin-2 receptor; conditions B): 0.027 µM

COc1ccc(CCN(CC2CC2)C(=O)c2nc(C)sc2-c2ccccc2)cc1OC [Example 18, 2-Methyl-5-phenyl-thiazole-4-carboxylic acid cyclopropylmethyl-[2-(3,4-dimethoxy-phenyl)-ethyl]-amide]
IC50 (human orexin-1 receptor; conditions A): 0.925 µM
IC50 (human orexin-2 receptor; conditions A): 0.004 µM

Cc1ccc(-c2ncncc2C(=O)N(CCc2c[nH]c3ccccc23)CC2CC2)cc1C [Example 504, 4-(3,4-Dimethyl-phenyl)-pyrimidine-5-carboxylic acid cyclopropylmethyl-[2-(1H-indol-3-yl)-ethyl]-amide]
IC50 (human orexin-1 receptor; [1]): 0.031 µM
IC50 (human orexin-2 receptor; [1]): 0.017 µM

Cc1cncc(-c2sc(C)nc2C(=O)N(CCc2c[nH]c3ccc(F)cc23)CC2CC2)c1 [Example 426, 2-Methyl-5-(5-methyl-pyridin-3-yl)-thiazole-4-carboxylic acid cyclopropylmethyl-[2-(5-fluoro-1H-indol-3-yl)-ethyl]-amide]
IC50 (human orexin-1 receptor; [1]): 0.292 µM
IC50 (human orexin-2 receptor; [1]): 0.05 µM

COc1ccc(CCN(CC(F)(F)F)C(=O)c2nc(C)sc2-c2ccc(C)c(C)c2)cc1OC [Example 120, 5-(3,4-Dimethyl-phenyl)-2-methyl-thiazole-4-carboxylic acid [2-(3,4-dimethoxy-phenyl)-ethyl]-(2,2,2-trifluoro-ethyl)-amide]
IC50 (human orexin-1 receptor; conditions B): 0.119 µM
IC50 (human orexin-2 receptor; conditions B): 0.006 µM

COc1nccc(-c2sc(C)nc2C(=O)N(CCc2c[nH]c3ccc(F)cc23)CC2CC2)c1Cl [Example 420, 5-(3-Chloro-2-methoxy-pyridin-4-yl)-2-methyl-thiazole-4-carboxylic acid cyclopropylmethyl-[2-(5-fluoro-1H-indol-3-yl)-ethyl]-amide]
IC50 (human orexin-1 receptor; [1]): 0.373 µM
IC50 (human orexin-2 receptor; [1]): 0.083 µM

COc1ccc(-c2sc(C)nc2C(=O)N(CCc2c[nH]c3cc4c(cc23)OCO4)CC2CC2)cn1 [Example 382, 5-(6-Methoxy-pyridin-3-yl)-2-methyl-thiazole-4-carboxylic acid cyclopropylmethyl-[2-(5H-[1,3]dioxolo[4,5-f]indol-7-yl)-ethyl]-amide]
IC50 (human orexin-1 receptor; [1]): 0.427 µM
IC50 (human orexin-2 receptor; [1]): 0.012 µM
